Measurements reported in patent publication US20260285850A1, “SUBSTITUTED OXAZOLIDINONES AND IMIDAZOLINONES AS HERBICIDES” (FMC CORPORATION, priority 2023, published 2026).

Key:
Format in all cases: in vivo
[1] = test system: barnyardgrass (Echinochloa crus-galli); experiment: Test A preemergence soil spray, visual injury rating 0-100; settings: 10 days, 0 = no effect, 100 = complete control
How it was run: (§1)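 Rating: visual, day 10, untreated plants as reference, 0 no effect to 100 full control. Plants were in loam-sand and were treated either preemergence via directed soil spray or postemergence at the one- to two-leaf stage.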

[2] = test system: blackgrass (Alopecurus myosuroides); experiment: as above; settings: 10 days, 0 = no effect, 100 = complete control
How it was run: as §1

corn (Zea mays) [3] = experiment: as above; settings: 10 days, 0 = no effect, 100 = complete control
How it was run: as §1

[4] = test system: green foxtail (Setaria viridis); experiment: as above; settings: 10 days, 0 = no effect, 100 = complete control
How it was run: as §1

kochia (Bassia scoparia) [5] = experiment: as above; settings: 10 days, 0 = no effect, 100 = complete control
How it was run: as §1

[6] = test system: oat, wild (wild oat, Avena fatua); experiment: as above; settings: 10 days, 0 = no effect, 100 = complete control
How it was run: as §1

[7] = test system: palmer (palmer amaranth, palmer pigweed, Amaranthus palmeri); experiment: as above; settings: 10 days, 0 = no effect, 100 = complete control
How it was run: as §1

[8] = test system: ragweed (common ragweed, Ambrosia artemisiifolia); experiment: as above; settings: 10 days, 0 = no effect, 100 = complete control
How it was run: as §1

[9] = test system: ryegrass, Italian (italian ryegrass, Lolium multiflorum); experiment: as above; settings: 10 days, 0 = no effect, 100 = complete control
How it was run: as §1

soybean (Glycine max) [10] = experiment: as above; settings: 10 days, 0 = no effect, 100 = complete control
How it was run: as §1

[11] = test system: wheat (Triticum aestivum); experiment: as above; settings: 10 days, 0 = no effect, 100 = complete control
How it was run: as §1

[12] = test system: barnyardgrass (Echinochloa crus-galli); experiment: Test A postemergence application, visual injury rating 0-100; settings: 10 days
How it was run: as §1

[13] = test system: blackgrass (Alopecurus myosuroides); experiment: as above; settings: 10 days
How it was run: as §1

corn (Zea mays) [14] = experiment: as above; settings: 10 days
How it was run: as §1

[15] = test system: galium (catchweed bedstraw, Galium aparine); experiment: as above; settings: 10 days
How it was run: as §1

[16] = test system: green foxtail (Setaria viridis); experiment: as above; settings: 10 days
How it was run: as §1

[17] = test system: horseweed (Erigeron canadensis); experiment: as above; settings: 10 days
How it was run: as §1

kochia (Bassia scoparia) [18] = experiment: as above; settings: 10 days
How it was run: as §1

[19] = test system: oat, wild (wild oat, Avena fatua); experiment: as above; settings: 10 days
How it was run: as §1

[20] = test system: palmer (palmer amaranth, palmer pigweed, Amaranthus palmeri); experiment: as above; settings: 10 days
How it was run: as §1

[21] = test system: ragweed (common ragweed, Ambrosia artemisiifolia); experiment: as above; settings: 10 days
How it was run: as §1

[22] = test system: ryegrass, Italian (italian ryegrass, Lolium multiflorum); experiment: as above; settings: 10 days
How it was run: as §1

soybean (Glycine max) [23] = experiment: as above; settings: 10 days
How it was run: as §1

[24] = test system: wheat (Triticum aestivum); experiment: as above; settings: 10 days
How it was run: as §1

[25] = test system: barnyardgrass (Echinochloa crusgalli); experiment: Test B flooded paddy test, visual plant response rating 0-100; settings: 250 g ai/ha, Flood, applied to paddy water, evaluated after 13 days
How it was run: (§2)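 Compounds applied to standing paddy water (3 cm above soil, maintained for the test duration) on 2-leaf-stage plants; visual rating vs controls at 13 days, greenhouse.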

[26] = test system: ducksalad (Heteranthera limosa); experiment: as above; settings: 250 g ai/ha, Flood, applied to paddy water, evaluated after 13 days
How it was run: as §2

rice (Oryza sativa) = experiment: as above; settings: 250 g ai/ha, Flood, applied to paddy water, evaluated after 13 days
How it was run: as §2

[27] = test system: sedge, umbrella (small-flower umbrella sedge, Cyperus difformis); experiment: as above; settings: 250 g ai/ha, Flood, applied to paddy water, evaluated after 13 days
How it was run: as §2

[28] = 31 g ai/ha, postemergence, 0 = no effect, 100 = complete control
[29] = Postemergence, 125 g ai/ha, 0 is no effect, 100 is complete control

CNC(=O)C1CCC(NC(=O)C2(C)CN(c3cc(F)cc(F)c3)C(=O)O2)C1 (stereo not shown) [Compound 14]
0: Barnyardgrass plant response rating (0-100) ([1]; 31 g ai/ha) | Barnyardgrass plant response rating (0 to 100 scale) ([1]; 125 g ai/ha) | Blackgrass plant response rating (0-100) ([2]; 31 g ai/ha) | Blackgrass plant response rating (0 to 100 scale) ([2]; 125 g ai/ha) | Corn plant response rating (0-100) (corn (Zea mays) [3]; 31 g ai/ha) | Corn plant response rating (0 to 100 scale) (corn (Zea mays) [3]; 125 g ai/ha) | Foxtail, Green plant response rating (0-100) ([4]; 31 g ai/ha) | Foxtail, Green plant response rating (0 to 100 scale) ([4]; 125 g ai/ha) | Kochia plant response rating (0-100) (kochia (Bassia scoparia) [5]; 31 g ai/ha) | Kochia plant response rating (0 to 100 scale) (kochia (Bassia scoparia) [5]; 125 g ai/ha) | Oat, Wild plant response rating (0-100) ([6]; 31 g ai/ha) | Oat, Wild plant response rating (0 to 100 scale) ([6]; 125 g ai/ha) | Amaranth, Palmer plant response rating (0-100) ([7]; 31 g ai/ha) | Amaranth, Palmer plant response rating (0 to 100 scale) ([7]; 125 g ai/ha) | Ragweed plant response rating (0-100) ([8]; 31 g ai/ha) | Ryegrass, Italian plant response rating (0-100) ([9]; 31 g ai/ha) | Ryegrass, Italian plant response rating (0 to 100 scale) ([9]; 125 g ai/ha) | Soybean plant response rating (0-100) (soybean (Glycine max) [10]; 31 g ai/ha) | Soybean plant response rating (0 to 100 scale) (soybean (Glycine max) [10]; 125 g ai/ha) | Wheat plant response rating (0-100) ([11]; 31 g ai/ha) | Wheat plant response rating (0 to 100 scale) ([11]; 125 g ai/ha) | Barnyardgrass plant response rating (0-100) [12, 28] | Barnyardgrass plant response rating (0 to 100 scale) [12, 29] | Blackgrass plant response rating (0-100) [13, 28] | Blackgrass plant response rating (0 to 100 scale) [13, 29] | Corn plant response rating (0-100) (corn (Zea mays) [14]; [28]) | Galium plant response rating (0-100) [15, 28] | Galium plant response rating (0 to 100 scale) [15, 29] | Foxtail, Green plant response rating (0-100) [16, 28] | Foxtail, Green plant response rating (0 to 100 scale) [16, 29] | Horseweed plant response rating (0-100) [17, 28] | Horseweed plant response rating (0 to 100 scale) [17, 29] | Kochia plant response rating (0-100) (kochia (Bassia scoparia) [18]; [28]) | Kochia plant response rating (0 to 100 scale) (kochia (Bassia scoparia) [18]; [29]) | Oat, Wild plant response rating (0-100) [19, 28] | Oat, Wild plant response rating (0 to 100 scale) [19, 29] | Amaranth, Palmer plant response rating (0-100) [20, 28] | Amaranth, Palmer / Pigweed, Palmer plant response rating (0 to 100 scale) [20, 29] | Ragweed plant response rating (0-100) [21, 28] | Ragweed plant response rating (0 to 100 scale) [21, 29] | Ryegrass, Italian plant response rating (0-100) [22, 28] | Ryegrass, Italian plant response rating (0 to 100 scale) [22, 29] | Soybean plant response rating (0-100) (soybean (Glycine max) [23]; [28]) | Soybean plant response rating (0 to 100 scale) (soybean (Glycine max) [23]; [29]) | Wheat plant response rating (0-100) [24, 28] | Wheat plant response rating (0 to 100 scale) [24, 29] | Plant response rating, Barnyardgrass (0 to 100 scale, 0 is no effect and 100 is complete control) [25] | Plant response rating, Ducksalad (0 to 100 scale, 0 is no effect and 100 is complete control) [26] | Plant response rating, Rice (0 to 100 scale, 0 is no effect and 100 is complete control) (rice (Oryza sativa)) | Plant response rating, Sedge, Umbrella (0 to 100 scale, 0 is no effect and 100 is complete control) [27]
20: Corn plant response rating (0 to 100 scale) (corn (Zea mays) [14]; [29])
30: Ragweed plant response rating (0 to 100 scale) ([8]; 125 g ai/ha)
